The nature of one data set: Solubility remark. In kind it is physicochemical.
The test system of a further data set is T. cruzi epimastigotes. In words: Flow cytometry of apoptosis-like markers in epimastigotes (Hoechst, DiOC6, PI). Particulars: 10 µM, 24 h. In kind it is cell-based, Trypanosoma cruzi. Here is the method:
(§1) Apoptosis-like markers were analyzed by triple staining using 3,3′-dihexyloxacarbocyanine (DiOC6), propidium iodide (PI), and Hoechst from Thermo Fisher Scientific to determine the change of mitochondrial membrane potential (ΔΨm), cell membrane damage, and impairment of cell cycle, respectively. All readings were performed on a BD FACSCanto II 4/2/2 Sys IVD flow cytometer, and data obtained were analyzed using the FlowJo7.6.2 software. Differences between treatments were determined by a two-way ANOVA for multiple comparisons with 95% significance using GraphPad Prism 8. In all cases, 20 µL of parasites (5 × 10^6/mL) were stained per treatment with 300 µL of Hanks’ balanced saline solution (HBSS) and 10 µL of the staining mix containing […], 0.5 µL of 70 nM DiOC6, and 0.5 µL of 10 mg/mL Hoechst. Subsequently, parasites were incubated at room temperature for 15 min until reading.
T. cruzi epimastigotes in exponential growth phase were used to submit the parasites to a treatment under nutritional stress and further challenging the culture with the inhibitor UBMC-4 and the control drug bz. Nutritional stress was induced by starving the parasites in PBS. Parasites were grown either in complete RPMI medium or PBS (with and without 10 µM UBMC-4) for 24 h at 28 °C. Three independent biological replicates were analyzed per treatment. The experiments were performed in 24-well plates at an initial concentration of 1 × 10^7 total parasites in 2 mL/well. Parasites were centrifuged at 1800 RCF for 5 min, washed once with PBS buffer, and then resuspended in a final volume of 2 mL for further labeling and flow cytometry.
(A flow cytometer gives signals particle by particle.)

For the next data set, the system named is T. cruzi trypomastigotes. In words: Flow cytometry of apoptosis-like markers in trypomastigotes. In kind it is cell-based, Trypanosoma cruzi. Particulars: 10 µM; for DNA damage (hypodiploidy), % of trypomastigote population: time not given. Here is the method: as §1
The same markers mentioned above were used for T. cruzi trypomastigotes. A total of 1 × 10^6 trypomastigotes were centrifuged at 1800 RCF for 5 min to remove the culture medium. Parasites were cultured at […] in PBS or 10% FBS-supplemented DMEM with or without 10 µM UBMC-4, 10 µM chloroquine, and 10 µM UBMC-4/chloroquine for 2 h and 5 h. All experiments were compared to a culture setup using bz as control compound. Three biological replicates and three experimental replicates were applied to data collected at each time point for experimental conduction of every portion of the study. In all cases, ANOVA was applied for multiple comparisons after determining that data were normal.

The nature of data set [1]: Cytotoxicity, MTT method, CaCo2. Particulars: human, Caco-2, read-out: LC50 median lethal concentration CaCo2. In kind it is cell-based. How it is done: Cytotoxicity of UBMC-4 was tested in HepG2, CaCo2, and huMDM cell lines according to the effect on cell growth determined by the MTT microenzimatic method, as described by others. Briefly, 2.0 × 10^4 U-937 and huMDM or 2.5 × 10^4 HepG2 and CaCo2 cells were dispensed in 200 µL into each well of a 96-well tissue culture plate containing the corresponding culture medium. Then, 100 µL/well of each compound at a concentration of […] were added and plates were incubated at 37 °C, 5% CO2. After 72 h of incubation, 20 μL of MTT (Sigma-Aldrich, St Louis, MO, USA) were added to each well and plates were incubated for 3 h at 37 °C, 5% CO2. […] The concentration of formazan was determined at 570 nm in a spectrophotometer (Varioskan Flash Multimode Reader, Thermo Scientific, Waltham, MA, USA). […] Cytotoxicity was determined according to the percentages of viability and cell growth inhibition obtained for each compound, bz, doxorubicin, or medium alone. Non-specific absorbance was corrected by subtracting the OD of the blank (culture medium). Percentages of mortality were calculated using equation, as follows: % mortality = 100 − [(O.D. of treated cells)/(O.D. of non-treated cells)] × 100. The half maximal effective concentration (EC50) was calculated by the linear regression model Probit using Graphpad Prism software.

The structures appear in SMILES notation.

Regarding `Oc1ccc(-c2nc(-c3ccc4sc5ccccc5c4c3)c(-c3ccccc3)[nH]2)cc1` [UBMC-4, 4-(4-dibenzo-[b,d]-thien-2-yl-5-phenyl-1H-imidazol-2-yl)phenol], the solubility result in “Solubility remark” is reported as “slight solubility problems”. The “changes in apoptosis-like markers” value in the data set on T. cruzi epimastigotes (normal culture conditions) is “no changes in apoptosis-like markers”. In the data set with T. cruzi epimastigotes (nutritional stress), the “DNA fragmentation (hypodiploid, Sub G0/G1), % of population” value is recorded as “up to 39.4%”; the “cell membrane damage (PI), % of population” value worked out at 38.4%; the “mitochondrial depolarization (DiOC6), % of population” value came to 99.9%. For the same compound, in the data set on T. cruzi trypomastigotes (normal nutritional conditions, 2 h), the “mitochondrial membrane potential change” value is reported as “remained intact (no hyper- or depolarization)”. The “cell membrane permeability, % of trypomastigote population” value in the data set on T. cruzi trypomastigotes (normal nutritional conditions, 5 h) worked out at 2.2%. The “DNA damage (hypodiploidy), % of trypomastigote population” value in the data set with T. cruzi trypomastigotes (normal nutritional conditions) turned out to be 23%. The “Ψm depolarization, % of trypomastigotes” value in the data set on T. cruzi trypomastigotes (nutritional stress, 2 h) was 32%. Moreover, in the data set on T. cruzi trypomastigotes (nutritional stress, 5 h), the “cell membrane permeability, % of trypomastigote population” value was determined as 36% and the “Ψm depolarization, % of trypomastigotes” value was found to be 40%. Further, the “DNA damage (hypodiploidy), % of trypomastigote population” value in the data set with T. cruzi trypomastigotes (nutritional stress) is 54%. Further, the CC50 at 72 h in data set [1] was over 40 µM.

For the origin of these results see publication PMC9229894, “In Silico, In Vitro, and Pharmacokinetic Studies of UBMC-4, a Potential Novel Compound for Treating against Trypanosoma cruzi” (Pathogens, 2022).
